Structures can show the parent of a compound that is named as a salt. Where two headings read alike, the source gives them in different places.
What was measured:
Adrenergic α1A = test: competitive radioligand binding, Adrenergic α1A; conditions: compound concentration of 1 μM
Experimental: (§1) Profiles of pharmacological activity of thieno-pyrrolo[3,2-c]pyridines of the general formula 1. Biological activity test of compounds of the general formula 1 was carried out in the setting of competitive radioligand binding [I. Okun, S. Tkachenko, A. Khvat, et al., Current Alzheimer Research, 7(2), 97-112 (2010)], using a wide range of therapeutic targets including G-protein coupled receptors (GPCR), ion channels and neuromediator transporters. The tested activity was determined by quantitative measurement of radio-labelled ligand displacement by tested compounds of the general formula 1 at their concentration of 1 μM.

Adrenergic α1B = test: competitive radioligand binding, Adrenergic α1B; conditions: compound concentration of 1 μM
Experimental: as §1

Dopaminergic D2L = Dopaminergic D2L (Homo sapiens, UniProt P14416); test: competitive radioligand binding, Dopaminergic D2L; conditions: compound concentration of 1 μM; read-out: radio-labelled ligand displacement, Dopaminergic D2L
Experimental: as §1

Dopaminergic D4.2 = biological target: T1, Dopaminergic D4.2 (Homo sapiens, UniProt P21917, DEL265-296); test: competitive radioligand binding, Dopaminergic D4.2; conditions: compound concentration of 1 μM; read-out: radio-labelled ligand displacement, Dopaminergic D4.2
T1 sequence (P21917 with tags, fused parts or gaps DEL265-296): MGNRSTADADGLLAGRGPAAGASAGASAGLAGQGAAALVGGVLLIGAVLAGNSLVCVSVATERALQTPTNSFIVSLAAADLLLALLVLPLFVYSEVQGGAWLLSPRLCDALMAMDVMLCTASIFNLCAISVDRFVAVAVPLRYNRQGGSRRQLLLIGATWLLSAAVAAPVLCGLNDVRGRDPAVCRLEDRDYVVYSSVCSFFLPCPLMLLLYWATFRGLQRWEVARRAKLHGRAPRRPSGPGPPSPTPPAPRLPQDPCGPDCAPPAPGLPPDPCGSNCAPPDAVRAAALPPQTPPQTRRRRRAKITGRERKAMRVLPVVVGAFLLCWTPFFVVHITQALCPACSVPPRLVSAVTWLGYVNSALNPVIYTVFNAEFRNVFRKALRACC
Experimental: as §1

Serotoninergic 5-HT2C = biological target: T2, Serotoninergic 5-HT2C (Homo sapiens, UniProt P28335); test: competitive radioligand binding, Serotoninergic 5-HT2C; conditions: read-out: radio-labelled ligand displacement, Serotoninergic 5-HT2C
T2 sequence (P28335 33-458): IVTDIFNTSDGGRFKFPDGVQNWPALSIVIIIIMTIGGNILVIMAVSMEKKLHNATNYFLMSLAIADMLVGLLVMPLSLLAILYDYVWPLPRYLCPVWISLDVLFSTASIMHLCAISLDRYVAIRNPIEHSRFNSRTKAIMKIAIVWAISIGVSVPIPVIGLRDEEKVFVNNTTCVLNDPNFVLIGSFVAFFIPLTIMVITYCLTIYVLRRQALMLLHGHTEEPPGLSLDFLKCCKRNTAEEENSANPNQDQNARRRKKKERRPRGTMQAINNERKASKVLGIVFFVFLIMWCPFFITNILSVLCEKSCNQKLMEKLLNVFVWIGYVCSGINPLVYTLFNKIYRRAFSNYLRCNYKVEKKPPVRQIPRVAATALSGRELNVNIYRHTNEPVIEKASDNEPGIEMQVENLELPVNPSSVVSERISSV
Experimental: as §1

[1] = system: Therapeutic targets (Adrenergic, Dopaminergic, Histaminergic, Serotoninergic); test: Profiles of pharmacological activity in competitive radioligand binding (whole panel); conditions: 1 μM, grades not defined
Experimental: as §1

male mice of BALB/c line [2] = test: Passive Avoidance of mice in Shuttle Chamber (memory disturbed by Scopolamine); assay type: in vivo; conditions: intraperitoneally 30 minutes before training, in combination with Scopolamine
Experimental: Nootropic action (enhancement of memory disturbed by Scopolamine) of compounds of the general formula 1 in test “Passive Avoidance of mice in Shuttle Chamber”. Shuttle chamber (Ugo Basile, Italy) consisted of two sections was used. […] Sections were connected through a hole which could be overlapped by vertical door. The floor was made of transverse metal bars on which DC current impulses could be fed. Experiments were carried out in aged male mice of BALB/c line weighing 20-24 g. On the first day of experiment 30 minutes before training mice were injected intraperitoneally with physiological solution, (0.3 mg/kg) or Scopolamine in combination with compound 3.6(1).HCl, or Scopolamine in combination with compound 2.5(1).HCl. Each group consisted of 8 animals. Animals were placed in light section, and latent period of the first entry into the dark chamber was registered. Then the vertical door was closed and the animal was punished by 0.6 mA DC current for 3 seconds. After that the animal was taken back to its home cage. In 22-24 hours the same animal was placed again in light section of shuttle chamber and latent period of its first entry into dark section, total time of its stay in light section and number of entries into dark section was registered. Each monitoring lasted for 5 minutes. […]

male mice of BALB/c line [3] = test: Porsolt's Forced Swim Test; assay type: in vivo; conditions: after 4 days injections in dose 1 mg/kg, last 5 minutes of the test
Experimental: Antidepressant action of antagonists of the general formula 1 in Porsolt's Forced Swim Test. Test apparatus represented a plastic vessel filled with water up to height of 18 cm at 20-22° C. Experiments were carried out in aged male mice of BALB/c line weighing 20-24 g.
Mice were placed in water and for 15 minutes duration of immobile hanging in water so called behavioural despaire, which is considered to be a measure of depressively-like state, was registered. The last 5 minutes of the test were used for analysis. Automated computerized detection of motion with videosystem and Any-maze program were used in the test.

male mice of BALB/c line [4] = test: Mice behavior in tail suspension test; assay type: in vivo; conditions: after 4 days injections in dose of 0.1 mg/kg, 6 minutes
Experimental: Antidepressant action of compounds of the general formula 1 in test “Mice behavior in tail suspension test”. Experiments were carried out in aged male mice of BALB/c line weighing 20-24 g. Mice were suspended by tail with scotch tape on holder over horizontal surface at height of about 40 cm, and for 6 minutes of total duration of complete immobility episodes which is considered to be a measure of depressively-like state was registered. Automated computerized detection of motion with videosystem and Any-maze program were used in test.

Mice of SHK line = test: Prepulse inhibition of startle response in mice (Apomorphine); conditions: 1 mg/kg, subcutaneously 60 minutes before the test

Dopaminergic D2L, sequence (P14416 whole entry): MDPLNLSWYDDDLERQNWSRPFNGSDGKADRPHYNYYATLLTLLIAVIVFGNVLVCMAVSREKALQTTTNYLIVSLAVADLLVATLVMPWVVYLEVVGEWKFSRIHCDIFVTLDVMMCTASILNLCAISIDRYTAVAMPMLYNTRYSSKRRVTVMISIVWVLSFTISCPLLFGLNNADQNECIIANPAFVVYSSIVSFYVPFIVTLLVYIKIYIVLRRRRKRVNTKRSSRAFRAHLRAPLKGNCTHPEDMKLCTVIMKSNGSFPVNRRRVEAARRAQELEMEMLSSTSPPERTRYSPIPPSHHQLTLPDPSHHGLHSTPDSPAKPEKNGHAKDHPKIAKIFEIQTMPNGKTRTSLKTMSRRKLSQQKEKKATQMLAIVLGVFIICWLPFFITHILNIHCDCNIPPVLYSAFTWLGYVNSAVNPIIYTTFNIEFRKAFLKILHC

Row | Compound | radio-labelled ligand displacement, Adrenergic α1A (Adrenergic α1A) [%] | radio-labelled ligand displacement, Adrenergic α1B (Adrenergic α1B) [%] | inhibition at 1 µM (Dopaminergic D2L) [%] | inhibition at 1 µM (Dopaminergic D4.2) [%] | inhibition at 1 µM (Serotoninergic 5-HT2C; compound concentration of 1 μM) [%] | grade of the activity profile (poor / satisfactory / good) [1] | inhibition at 1 µM (Serotoninergic 5-HT2C) [%] | Nootropic action: training disturbed by Scopolamine (male mice of BALB/c line [2]) | Antidepressant action: duration of immobile hanging in water (male mice of BALB/c line [3]) | Antidepressant action: duration of complete immobility (male mice of BALB/c line [4]) | Antipsychotic activity: disturbance of prepulse inhibition of startle caused by Apomorphine (Mice of SHK line)
1 | Cc1cc2c(s1)c1c(n2-c2cccc(F)c2)CCN(C)C1 [2.4(3)•HCl, 2,7-dimethyl-4-(3-fluorophenyl)-5,6,7,8-tetrahydro-4H-thieno[2′,3′:4,5]pyrrolo[3,2-c]pyridine] | 17 | 10 | 4 | 3 | 33 | poor |  |  |  |  | 
2 | Cc1cc2c(s1)c1c(n2CCc2ccccc2)CCN(C)C1.Cl [2.6(1)•HCl, 2,7-Dimethyl-4-(2-phenylethyl)-5,6,7,8-tetrahydro-4H-thieno[2′,3′:4,5]pyrrolo[3,2-c]pyridine hydrochloride] | 83 | 90 | 76 | 14 |  |  | 89 |  |  |  | 
3 | Cc1ccc(Cn2c3c(c4sc(Cl)cc42)C(C)N(C)C(C)C3)cn1 (stereo not shown) [2.5(4)•HCl, 4-(6-methylpyridin-3-ylmethyl)-6,7,8-trimethyl-2-chloro-5,6,7,8-tetrahydro-4H-thieno[2′,3′:4,5]pyrrolo[3,2-c]pyridine] | 51 | 38 | 11 | -1 | 91 | satisfactory |  |  |  |  | 
4 | Cc1cc2c(s1)c1c(n2Cc2ccccc2)CCN(C)C1.Cl [2.5(1)•HCl, 4-Benzyl-2,7-dimethyl-5,6,7,8-tetrahydro-4H-thieno[2′,3′:4,5]pyrrolo[3,2-c]pyridine hydrochloride] | 42 | 10 | 8 | -3 |  |  | 84 | improve training disturbed by Scopolamine | decrease this index | decrease the duration of complete immobility of mice | prevented disturbance of prepulse inhibition of startle caused by Apomorphine
5 | Cc1cc2c3c(n(Cc4ccccc4)c2s1)CCN(C)C3.Cl [3.5(1)•HCl, 8-Benzyl-2,5-dimethyl-5,6,7,8-tetrahydro-4H-thieno[3′,2′:4,5]pyrrolo[3,2-c]pyridine hydrochloride] | 77 | 57 | 14 | -5 |  |  | 97 |  |  |  | 
6 | Cc1cc2c3c(n(CCc4ccccc4)c2s1)CCN(C)C3.Cl [3.6(1)•HCl, 2,5-Dimethyl-8-(2-phenylethyl)-5,6,7,8-tetrahydro-4H-thieno[3′,2′:4,5]pyrrolo[3,2-c]pyridine hydrochloride] | 97 | 99 | 87 | 71 |  |  | 99 | improve training disturbed by Scopolamine | decrease this index | decrease the duration of complete immobility of mice | prevented disturbance of prepulse inhibition of startle caused by Apomorphine
7 | Cc1cc2c3c(n(Cc4ccccc4)c2s1)CC1CCC3N1C (stereo not shown) [3.13(1)•HCl, 9-benzyl-2,10-dimethyl-4,5,6,7,8,9-hexahydro-4,7-epiminocyclohepta[b]thieno[3,2-d]pyrrole] | 61 | 69 | 37 | 31 |  | satisfactory | 81 |  |  |  | 
8 | CC1Cc2c(c3sc(Cl)cc3n2C#Cc2cccc(F)c2)C(C)N1C (stereo not shown) [2.10(3)•HCl, 6,7,8-trimethyl-4-(3-fluorophenyl)ethynyl-2-chloro-5,6,7,8-tetrahydro-4H-thieno[2′,3′:4,5]pyrrolo[3,2-c]pyridine] | 21 | 5 | 20 | 4 | 31 | poor |  |  |  |  | 
9 | Cc1ccc(CCCn2c3c(c4scc(Cl)c42)CN(C)CC3)cn1 [2.12(5)•HCl, 7-methyl-4-[3-(6-methylpyridin-3-yl)propyl]-3-chloro-5,6,7,8-tetrahydro-4H-thieno[2′,3′:4,5]pyrrolo[3,2-c]pyridine] | 98 | 97 | 87 | 69 | 99 | good |  |  |  |  | 
